Test results as given in PMC11050443, “Discovery of Strong 3-Nitro-2-Phenyl-2H-Chromene Analogues as Antitrypanosomal Agents and Inhibitors of Trypanosoma cruzi Glucokinase” (International Journal of Molecular Sciences, 2024).
Where two headings read alike, the source gives them in different places.

Columns and labels:
T. cruzi = system: T. cruzi; parameters: method as in PMID 26778112; conditions: cited from earlier work
TcGlcK = target: TcGlcK; parameters: method as in PMID 26778112; conditions: competitive inhibitor, previous study; cited from earlier work
NIH-3T3 fibroblasts = assay: In vitro cytotoxicity assay of mammalian NIH-3T3 fibroblasts (Alamar blue); assay type: cell-based; conditions: NIH-3T3 fibroblast growth inhibition, host cell toxicity; 4 days; N = 3
Procedure: The in vitro cell culturing of mammalian NIH-3T3 fibroblasts following treatment with inhibitors to assess for cytotoxicity has previously been described. DMEM lacking phenol red and supplemented with 2% FBS and 1% PSG was warmed up. NIH-3T3 cells were trypsinized, as described in the cell culture protocol. When cells became detached, they were harvested in DMEM lacking phenol red and including 2% FBS and 1% PSG. The cells were centrifuged at 1000 rpm for 5 min, the medium was discarded, and the cells were resuspended in fresh DMEM lacking phenol red and including 2% FBS and 1% PSG. The cells were centrifuged at 1000 rpm for 5 min, resuspended in the medium, counted, and diluted to 500,000 cells/mL. Dilution was accomplished by transferring the stock number of cells into a sterile basin and 100 μL of cells was added to each well of a transparent, sterile, flat-bottom, 96-well microplate (50,000 cells/well) using a multichannel pipette. The plate was placed into the incubator for 3 h to allow cells to attach. The 3-nitro-2-phenyl-2H-chromene compounds were thawed from −80 °C to room temperature. The compounds were prepared as 10.0 mM stock solutions in 100% DMSO. A volume of 2.0 μL of a given compound plus a volume of 98.0 μL of fresh media were both added to a well in the first row of the 96-well microplate; this was performed for each compound to be tested. The solutions were mixed with a micropipette, followed by the transfer of 100 μL to the next row and repeated. The compound solutions ranged from 0.0139–30.3 μM and this was accomplished by serial dilution using a 3-fold dilution. After incubation for 4 days, 10.0 μL of Alamar blue was added to each well. Absorbance readings were measured using a Victor Nivo multimode microplate reader (PerkinElmer, Inc.; Shelton, CT, USA) at λ = 590 nm. All measurements were performed in triplicate and TC50 determinations for percent growth inhibition were carried out using GraphPad Prism 10.0. The final volume per well of cells and a given compound was 100 μL and this volume became 110 μL after the addition of Alamar blue. The detergent SDS was used as a positive control and its final solution concentration was 0.1%. Three controls were carried out, as follows: (a) NIH-3T3 cells alone, (b) perished NIH-3T3 cells (NIH-3T3 cells in the presence of 0.1% SDS), and (c) the medium alone.

[1] = system: T. brucei brucei (427 strain) bloodstream form; assay: In vitro T. brucei biological assay (Alamar blue); assay type: cell-based, Trypanosoma brucei brucei; conditions: Trypanosoma brucei, 48 h, T. brucei brucei 427 strain bloodstream form growth inhibition; N = 3
Procedure: The in vitro cell culture preparation of T. brucei brucei (427 strain) trypomastigote bloodstream form followed by treatment with inhibitors has recently been described by Ajayi and colleagues. The 3-nitro-2-phenyl-2H-chromene compounds (inhibitors) that were prepared as 10.0 mM stock solutions in 100% DMSO were thawed from −80 °C to room temperature. HMI-9 medium [Iscove’s modification of DMEM supplemented with 10% FBS, 10% serum plus (SAFC), 0.05 mM bathocuproinesulfonate, 1.5 mM L-cysteine, 1.0 mM hypoxanthine, 0.2 mM β-mercaptoethanol, 0.16 mM thymidine, and 1.0 mM pyruvate] was prepared. In a sterile, round-bottom, 96-well microplate, 100 μL of HMI-9 medium was added to each well. A volume of 2.0 μL of a given compound plus a volume of 98.0 μL of fresh media were both added to a well in the first row of the 96-well microplate; this was performed for each compound to be tested. Solutions were mixed with a micropipette followed by transfer of 100 μL to the next row and repeated. The compound solutions ranged from 0.0781–10.0 μM and this was accomplished by serial dilution using a 2-fold dilution. T. brucei parasites were centrifuged for 10 min at 900× g (without centrifuge breaks). The media was carefully discarded by aspiration and the parasites were resuspended in warm media. Parasites were counted in a Newbauer chamber. Afterwards, the parasites were diluted to 50,000 cells/mL (5000 cells/well) and 100 μL was added to each well of the 96-well microplate using a multichannel pipette. After 48 h, 20.0 μL of Alamar blue was added to each well and the plate was placed into an incubator for 4 h at 37 °C. Fluorescence readings were measured using a Victor Nivo multimode microplate reader (PerkinElmer, Inc.; Shelton, CT, USA) at λex = 530 nm and λem = 590 nm. All measurements were performed in triplicate and IC50 determinations for percent growth inhibition were carried out using GraphPad Prism 10.0. The detergent SDS was used as a positive control and its final solution concentration was 0.5%. Three control experiments were performed, as follows: (a) parasites alone, (b) parasites and 0.5% SDS, and (c) the medium alone.

[2] = target: T1, LmG6PDH (Leuconostoc mesenteroides glucose-6-phosphate dehydrogenase) (Leuconostoc mesenteroides, UniProt P11411); assay: Confirmatory assay on the LmG6PDH enzyme-coupled system; assay type: biochemical; conditions: N = 4
T1 construct: purchased Worthington Biochemical Corporation
Procedure: Two criteria were examined in order to certify on-target confirmed hits: (a) the assessment of potential inhibition to the LmG6PDH enzyme-coupled system, and (b) the precision of the assay (per inhibitor), performed in quadruplicate (N = 4). Compounds were tested in quadruplicate in a black, round-bottom 96-well microplate in which wells were filled with a buffered solution (50 mM triethanolamine, 150 mM NaCl) amounting to a total volume of 206.5 μL that contained the following reagents at final assay concentrations: LmG6PDH (6.1 μg/mL), NADP^+ (0.54 mM), ATP (0.54 mM), MgCl2 (6.9 mM), DMSO (1.0% by vol.), D-glucose-6-phosphate (0.80 mM), and a 3-nitro-2-phenyl-2H-chromene analogue (20.0 μM). The analogue compounds were pre-incubated with the enzyme system a minimum of 10 min prior to the initiation of the assay. The enzymatic reactions were initiated and terminated similarly as described in the TcGlcK primary screen (vide supra). The production of NADPH was monitored using the VANTAstar-F multi-mode microplate reader set to fluorescent mode, λex = 340 nm and λem = 485 nm, over a 120-s timeframe.

[3] = target: T2, TcGlcK (Trypanosoma cruzi glucokinase) (Trypanosoma cruzi, UniProt Q4E4E1); assay: TcGlcK primary screening assay (LmG6PDH-coupled, Dixon plots); assay type: biochemical; conditions: Dixon plots; 0.4, 0.6, 0.8 mM D-glucose; N = 1 unless marked, N = 3 for compounds 1, 4, 9, 11
T2 construct: made in house; host or cells: Escherichia coli BL21(DE3)
T2 sequence (Q4E4E1 1-376): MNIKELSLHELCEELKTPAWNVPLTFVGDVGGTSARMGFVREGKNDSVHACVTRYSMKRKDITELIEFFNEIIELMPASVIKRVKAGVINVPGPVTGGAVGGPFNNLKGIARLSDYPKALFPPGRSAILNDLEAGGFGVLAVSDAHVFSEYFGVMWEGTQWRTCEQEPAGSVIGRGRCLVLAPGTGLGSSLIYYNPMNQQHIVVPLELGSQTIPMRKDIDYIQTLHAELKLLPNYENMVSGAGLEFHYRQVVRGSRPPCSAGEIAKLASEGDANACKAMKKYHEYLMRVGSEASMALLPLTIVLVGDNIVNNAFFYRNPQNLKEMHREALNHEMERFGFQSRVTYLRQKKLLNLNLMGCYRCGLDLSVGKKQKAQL
Procedure: A primary screening assay was carried out for TcGlcK with the 3-nitro-2-phenyl-2H-chromene analogues. The data was subsequently processed for respective Ki values in order to assess enzyme inhibition. […] The primary screening assay was performed with the substrate D-glucose in various concentrations of 0.4 mM, 0.6 mM, and 0.8 mM to produce Dixon plots with different slopes. Each of the 3-nitro-2-phenyl-2H-chromene analogues were originally prepared at a working concentration of 1.0 mM and were dissolved in 100% DMSO. The final assay concentrations of the analogue compounds (inhibitors) ranged from 0.0–10.0 μM. The analogue compounds were pre-incubated with the enzyme system a minimum of 10 min prior to the initiation of the assay. The enzymatic reaction was carried out at room temperature (22 °C; temperature optimum) using ATP to initiate the reaction, and termination was performed after 120 s (time optimum) by stopping the reaction with the addition of an EDTA (pH 8.0) solution, to a final concentration of 100 mM. TcGlcK enzyme activity was analyzed for the production of NADPH. Each completed reaction mixture was added into a black, round-bottom microplate and scanned by a VANTAstar-F multi-mode microplate reader (BMG LABTECH, Inc.; Cary, NC, USA). The instrument was set to fluorescence mode and the wavelengths (λex = 340 nm; λem = 485 nm) were set to observe the relative fluorescence units of NADPH [40]. The enzyme-inhibition kinetics Ki value determination and the mode of inhibition was determined using the Cornish–Bowden Dixon Plot analysis method.

T1 sequence (P11411 whole entry): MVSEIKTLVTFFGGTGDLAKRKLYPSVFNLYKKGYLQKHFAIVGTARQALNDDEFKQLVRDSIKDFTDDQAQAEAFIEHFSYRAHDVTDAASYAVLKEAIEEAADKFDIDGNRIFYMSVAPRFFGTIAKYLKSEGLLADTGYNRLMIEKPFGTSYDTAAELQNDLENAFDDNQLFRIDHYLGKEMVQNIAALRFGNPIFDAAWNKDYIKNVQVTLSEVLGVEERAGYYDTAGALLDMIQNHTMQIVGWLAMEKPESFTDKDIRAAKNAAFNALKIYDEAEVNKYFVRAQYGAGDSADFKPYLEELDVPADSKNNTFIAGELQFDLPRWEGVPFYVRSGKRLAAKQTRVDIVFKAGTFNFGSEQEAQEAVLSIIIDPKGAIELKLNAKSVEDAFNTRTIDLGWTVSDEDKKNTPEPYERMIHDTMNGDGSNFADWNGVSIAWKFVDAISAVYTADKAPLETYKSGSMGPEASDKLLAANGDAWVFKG

SMILES: O=C(N[C@H]1[C@@H](O)[C@H](O)C(CO)O[C@@H]1O)OCc1ccccc1 (some centres unmarked) [carboxybenzyl glucosamine]
- IC50 (T. cruzi; previous study, read-out: in vitro percent-growth-inhibition IC50 in T. cruzi culture): 48700 nM
- Ki (TcGlcK): 710 nM

SMILES: O=[N+]([O-])C1=Cc2ccccc2OC1c1ccccc1Cl (centres unmarked) [Compound 12, 2-(2-Chlorophenyl)-3-nitro-2H -chromene]
- NIH-3T3 TC50 (NIH-3T3 fibroblasts): 10900 ± 1550 nM
- IC50 [1]: 1670 ± 60 nM
- LmG6PDH inhibitory effect (in words) ([2]; 20 µM compound): did not observe any significant LmG6PDH inhibitory effects
- inhibition at 20 µM ([2]; percentage of inhibition at 20 µM compound in comparison to controls, read-out: LmG6PDH Inh20): 8.6 ± 0.1%
- Ki [3]: 14000 nM

SMILES: O=C(Cn1ccnc1[N+](=O)[O-])NCc1ccccc1 [Benznidazole, benznidazole]
- IC50 (T. cruzi; benznidazole control, previous work, read-out: T. cruzi IC50): 1120 ± 95 nM
